Structures can show the parent of a compound that is named as a salt.
Assays:
[1] = tested on: BXPC3 human pancreatic cancer cells; experiment: CellTiter Glo cell viability assay, BXPC3 cells
Protocol: (§1) Two types of human tumor cells were used in this investigation: BXPC3 human pancreatic cancer cells and A2780 human ovarian cancer cells. The BXPC3 cells were originally obtained from American Type Cell Culture (ATCC). The ovarian tumor cells were gifts from Roswell Park Cancer Institute, Buffalo, N.Y. All tumor cells were maintained at 37° C. in a humidified 5% CO2 atmosphere in T75 tissue culture flasks containing 20 mL of Roswell Park Memorial Institute (RPMI) 1640 containing 2 mM L-glutamine, 10% fetal bovine serum (FBS) and 1% penicillin and streptomycin (100 IU/mL penicillin and 100 μg/mL streptomycin). The tumor cells were split at a ratio of 1:5 every 4-5 days by trypsinization and resuspended in fresh medium in a new flask. Cells were harvested for experiments at 70-90% confluency.
(§2) CPI-613 (i.e., 6,8-bis(benzylthio)octanoic acid) stock solutions at concentrations of 8, 4, 2, 1.5 and 0.5 mM were prepared in the appropriate vehicles. The molar ratio of vehicle to CPI-613 was maintained at 8:1. The corresponding vehicle concentrations were 64, 32, 16, 12, and 4 mM respectively. A sixty-four mM aliquot of vehicle was dissolved in 10 mL of water. Next, 8 mM of CPI-613 was added and the mixture was stirred until a clear solution was obtained. […] A 5 μL aliquot of this stock solution was added to 95 μL of tumor cells in media. Upon dilution in the wells, the corresponding drug concentrations were 400, 200, 100, 75 and 25 μM respectively.
(§3) For the sodium salt and potassium salt form of CPI-613, 1 equivalent of CPI-613 solid was dissolved in water. Sixty-two mg of CPI-613 (0.00016 mol) was added to 10 mL of water, then 165 μL of 1M NaOH or KOH was added and stirred until a clear solution was obtained. This gave a 16 mM solution. The resulting 16 mM solution was then serially diluted, thereby providing 8 mM and 4 mM solutions of the CPI-613 salt form. For the ammonium salt, vehicle to drug ratio was maintained at 8:1 and the formulation was prepared using procedures analogous to those described above in Section 2 relating to preparation of CPI-613 formulations in different vehicles.
(§4) CPI-613 formulated in 1M triethanolamine (TEA) was used as an internal control during formulation screening. To prepare a 16 mM of working stock of CPI-613, 50 mg/mL of CPI-613 (128.66 mM of CPI-613 in 1M TEA) was diluted in complete cell culture media containing 10% FBS. That is, 310 μL of a 128.66 mM solution of CPI-613 in 1M TEA was added to 2.19 mL of cell culture media. This stock was further diluted serially in complete media to give 8 mM, 4 mM 2 mM, 1.5 mM and 0.5 mM working solutions. On the day of testing, 5 μL of this working solution was added to 95 μL of cell culture media (20 fold dilution) resulting final concentrations of 400, 200, 100, 75 and 25 μM CPI-613, respectively. The ratio of CPI-613 to TEA was maintained at 1:8 ratio at all times.
(§5) The cell viability of CPI-613 formulations formulated at a ratio of 1:8, CPI-613 to vehicle, was assessed by exposing the A2780 ovarian tumor cells and BXPC3 human pancreatic cancer cells to the following CPI-613 concentrations: 400 μM (3200 μM vehicle), 200 μM (1600 μM vehicle), 100 μM (800 μM vehicle), 75 μM (600 μM vehicle) and 25 μM (200 μM vehicle) The impact of corresponding vehicles at 3200, 1600 and 800 μM concentrations was also tested in tumor cells for cell viability. […] CPI-613 in TEA was used as an internal control. The tumor cells were treated for 24 hrs with the test article in serum-containing medium. After 24 hrs of treatment the number of viable tumor cells was determined.
(§6) The number of cells targeted for the study was 4×10^3 per well in 100 μL of medium. The actual number of cells were counted and seeded in the wells of a 96 well-plate. The cells were incubated for ˜24 hrs before addition of CPI-613.
(§7) For each cell line the concentrations of test articles or vehicles specified above was used.

[2] = tested on: BXPC3 human pancreatic cancer cells; experiment: PI/Annexin Alexa Fluor 488 staining, FACS, type of cell death; format: cell-based; settings: 300 μM of CPI-613; 24 hours
Text: Apoptotic cells will stain Annexin V positive but PI negative because the PI cannot cross the intact cell membrane. Necrotic cells will stain positive for both Annexin V and PI because the cell membrane is not intact.
BxPC3 human pancreatic cancer cells were used in this investigation. These tumor cells were originally obtained from American Type Cell Culture (ATCC, Manassas, Va.). […] Cells were split at a ratio of 1:10 every 2-3 days by trypsinization and resuspended in fresh medium in a new flask. Cells were harvested for experiments in the same way at 70-90% confluency.
2) A 1 mL aliquot of each test condition was added to corresponding well. Each treatment condition was run in duplicate. Cells were incubated for 24 hours with test conditions prior to PI/Annexin Staining.
3) After 24 hours, cells, including floating cells, with media were harvested and centrifuged at 1,400 RPM for 5 minutes.
4) For all samples the supernatant was aspired off, and the pellet was resuspended in 3 mL PBS and then centrifuged again at 1,400 RPM for 5 minutes, for a total of 2 washes.
Cells were incubated with PI/Annexin V for 8 minutes.
6) The reaction was stopped by adding 400 μL 1× Annexin V binding buffer.
7) Samples were then taken to FACS facility to be read on the FACS Scan Flow Cytometer.

[3] = tested on: A2780 human ovarian cancer cells; experiment: CellTiter Glo cell viability assay, A2780 cells
Protocol: as §1, §2, §3, §4, §5, §6, §7

[4] = Stability of the drug product by visual observation and HPLC; format: physicochemical; settings: 50 mg/mL in 1M triethanolamine
Protocol: Bis-benzyl lipoate was provided in a concentrated form at a concentration of 50 mg/mL dissolved in 1M triethanolamine (TEA). The stability of the drug product was assessed by visual observation and by high-performance liquid chromatography (HPLC) assessment, performed at the beginning and the end of the study. […] The concentrated bis-benzyl lipoate solution was diluted to an appropriate concentration with 5% dextrose (D5W) to formulate 0.1, 1 and 10 mg/kg doses of bis-benzyl lipoate.

[5] = tested on: Human H-460 Non Small Cell Lung Carcinoma (NSCLC) xenograft; experiment: Anti-tumor activity in mice with Human H-460 NSCLC xenograft; format: in vivo
Protocol: A study to assess the dose and dosing schedule effects on the anti-tumor activity of bis-benzyl lipoate was undertaken. More specifically, the pharmaceutical formulations of bis-benzyl lipoate of Comparative Example 1, i.e., bis-benzyl lipoate dissolved in 1:1 Tween 80:ethanol and diluted with saline, were tested in mice with Human H-460 Non Small Cell Lung Carcinoma (NSCLC) xenograft. The pharmaceutical formulations were administered intraperitoneally (IP), given 1× or 3× weekly. Administration of bis-benzyl lipoate began when the average tumor size of the mice was ˜300 mm^3. There were originally eight treatment groups, with seven mice in each group, investigating three doses (0.1, 1 and 10 mg/kg) and two dosing schedules, as shown in Table 1 below.
Specifically, both subgroups of each treatment group were treated with the same dose of bis-benzyl lipoate as in the original protocol; however, one of the two subgroups was treated with a pharmaceutical formulation of bis-benzyl lipoate according to Comparative Example 1, i.e., bis-benzyl lipoate dissolved in 1:1 Tween 80:ethanol and diluted with saline, and the other subgroup was treated with a pharmaceutical formulation of bis-benzyl lipoate according to Example 1, i.e., dissolved in TEA and diluted with D5W. […]

[6] = salt formulation at 200 μM, 24 hrs
[7] = salt formulation at 400 μM, 24 hrs

SMILES	BXPC3 Cell Viability (alkali salt formulations) ([1]; CPI-613 75 μM, CPI-613 to base 1:1, 24 hrs)	viability at 25 µM ([1]; Homo sapiens, BXPC-3, 24 h, read-out: BXPC3 Cell Viability (alkali salt formulations), CPI-613 25 μM, CPI-613 to base 1:1)	viability at 100 µM ([1]; Homo sapiens, BXPC-3, 24 h, read-out: BXPC3 Cell Viability (alkali salt formulations), CPI-613 100 μM, CPI-613 to base 1:1)	viability at 200 µM ([1]; Homo sapiens, BXPC-3, 24 h, read-out: BXPC3 Cell Viability (alkali salt formulations), CPI-613 200 μM, CPI-613 to base 1:1)	viability at 400 µM ([1]; Homo sapiens, BXPC-3, 24 h, read-out: BXPC3 Cell Viability (alkali salt formulations), CPI-613 400 μM, CPI-613 to base 1:1)	cell kill in BXPC3 cells [1, 6]	cell kill in BXPC3 cells [1, 7]	type of cell death (apoptosis or necrosis) [2]	A2780 Cell Viability (alkali salt formulations) ([3]; CPI-613 200 μM, CPI-613 to base 1:1, 24 hrs)	viability at 25 µM ([3]; Homo sapiens, A2780, 24 h, read-out: A2780 Cell Viability (alkali salt formulations), CPI-613 25 μM, CPI-613 to base 1:1)	viability at 75 µM ([3]; Homo sapiens, A2780, 24 h, read-out: A2780 Cell Viability (alkali salt formulations), CPI-613 75 μM, CPI-613 to base 1:1)	viability at 100 µM ([3]; Homo sapiens, A2780, 24 h, read-out: A2780 Cell Viability (alkali salt formulations), CPI-613 100 μM, CPI-613 to base 1:1)	viability at 400 µM ([3]; Homo sapiens, A2780, 24 h, read-out: A2780 Cell Viability (alkali salt formulations), CPI-613 400 μM, CPI-613 to base 1:1)	cell kill in A2780 cells [3, 6]	cell kill in A2780 cells [3, 7]	physical appearance (stability of the drug product, visual observation) ([4]; beginning and end of the study)	purity by HPLC (stability of the drug product) ([4]; both at the beginning and the end of the study)	anti-tumor effects compared to vehicle treatment ([5]; Comparative Example 1 formulation (Tween 80/ethanol/saline), IP, 0.1, 1, 10 mg/kg, 1x or 3x weekly)	H-460 tumor size versus 10 mg/kg in Comparative Example 1 formulation ([5]; Example 1 formulation (TEA/D5W), 0.1-10 mg/kg)
O=C(O)CCCCC(CCSCc1ccccc1)SCc1ccccc1 (stereo not shown) [CPI-613 sodium salt]	+ (tumor cell viability of >95%)	> 95%	70 to 95%	30 to 70%	< 10%	~50%	all the cells were killed	higher number of cells in the state of apoptotic death versus the number of cells in the state of necrotic death	++++ (tumor cell viability of >10% up to 30%)	70 to 95%	70 to 95%	70 to 95%	< 10%	~65%	all the cells were killed	–	–	–	–
O=C(O)CCCCC(CCSCc1ccccc1)SCc1ccccc1 (stereo not shown) [bis-benzyl lipoate, 6,8-bis(benzylthio)octanoic acid]	–	–	–	–	–	–	–	–	–	–	–	–	–	–	–	did not change	> 99%	did not induce any anti-tumor effects	may be smaller

From US11065335B2, “Methods of treating leukemia using compositions containing bis(benzylthio)octanoic acid and ion pairs thereof” (Rafael Pharmaceuticals, Inc., priority 2007, dated 2021)
